In patent publication US20070249555A1, “Use of Atp Analogues for Treatment of Cardiovascular Diseases” (INSTITUT NATIONAL DE LA SANTE ET DE LA RECHERCHE MEDICALE …, priority 2004, published 2007):

Columns and labels:
human P2Y13 receptor [1] = biological target: T1, human P2Y13 receptor (Homo sapiens, UniProt Q9BPV8); assay: forskolin-induced cAMP formation in hP2Y13-CHO-K1 cells; format: cell-based; conditions: forskolin 3 μM; for maximal inhibition (decrease) of forskolin-induced cAMP accumulation / IC50: hP2Y13-CHO-K1 cells, 12 min; for IC50: read-out: IC50 for inhibition of forskolin-induced cAMP accumulation
T1 construct: expressed in transfected cells
T1 sequence (Q9BPV8 22-354 limits assumed): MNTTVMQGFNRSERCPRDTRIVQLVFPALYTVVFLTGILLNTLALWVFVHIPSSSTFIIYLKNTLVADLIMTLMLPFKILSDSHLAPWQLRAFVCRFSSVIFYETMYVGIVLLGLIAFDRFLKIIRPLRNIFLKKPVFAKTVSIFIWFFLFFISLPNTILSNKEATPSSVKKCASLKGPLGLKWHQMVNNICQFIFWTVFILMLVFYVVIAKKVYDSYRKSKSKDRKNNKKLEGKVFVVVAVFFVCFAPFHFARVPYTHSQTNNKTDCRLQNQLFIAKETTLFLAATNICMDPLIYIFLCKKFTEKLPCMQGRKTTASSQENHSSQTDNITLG
Procedure: The cells were incubated with various concentrations of these agents for 12 min as described in “Materials and Methods”. Data are expressed in % on the value with forskolin alone and presented as mean ±S.D. of triplicates in one representative experiment out of 4.
AR-C69931MX and ADP (at increasing concentrations) were added simultaneously with forskolin to hP2Y13-CHO-K1 cells for a 12 min incubation period. Data are expressed in % of the value with forskolin alone and presented as mean ±S.D. of triplicates in one representative experiment out of 2. (▴): ADP without AR-C69931MW; (●): ADP+AR-C69931MX (100 nM).
The cyclic AMP assays was performed on CHO-K1 cell lines expressing recombinant P2Y receptors as follows.
The CHO-K1 cell line stably expressing the human P2Y13 receptor has been previously described (Communi et al., J Biol Chem, 2001, 276: 41479-85). The plasmid of human P2Y12 receptor (hP2Y12-pEFIN5) was obtained from Euroscreen (Gosselies, Belgium) and was stably transfected into CHO-K1 cells by using the FuGENETM6 transfection reagent (Roche Applied Science, Mannheim, Germany). Transfected cells were selected using G418 (400 μg/ml). The hP2Y13-CHO-K1 and HP2Y12-CHO-K1 cells were grown in Ham'S F12 cell culture medium (Invitrogen-France) supplemented with fetal bovine serum (10%, v/v), penicillin (100 units/ml), streptomycin (100 μg/ml) and G418 (400 μg/ml).
The stably transfected CHO-K1 cells (200,000 cells/dish) were seeded on 35-mm diameter cell culture dishes in complete medium one day before the experiment. Cells were incubated for 2 hours in Krebs-Ringer-Hepes (KRH) buffer (124 mM NaCl, 5 mM KCl, 1.25 mM MgSO4, 1.45 mM CaCl2, 1.25 mM KH2PO4, 25 mM HEPES, pH 7.4, and 8 mM D-glucose) containing 25 μM Rolipram. Nucleotides were then added in presence of 3 μM forskolin, usually for a 12 min incubation (37° C.). The reactions were stopped by aspiration of the incubation medium and addition of 1 ml of 0.1 M HCl. The lysates were then vacuum dried and re-suspended in an appropriate volume of water. Cyclic AMP was quantified by 125l radioimmunoassay, as described in Communi et al., J Biol Chem, 2001, 276: 41479-85.

human P2Y13 receptor [2] = biological target: T2, human P2Y13 receptor (Homo sapiens, UniProt Q9BPV8); assay: HDL3 internalization by HepG2 cells after P2Y13 receptor silencing by siRNA; format: cell-based; conditions: 75 μg/ml 125I-HDL3, ADP 100 nM, AR-C69931MX 100 nM
T2 construct: host or cells: HepG2
T2 sequence (Q9BPV8 1-354): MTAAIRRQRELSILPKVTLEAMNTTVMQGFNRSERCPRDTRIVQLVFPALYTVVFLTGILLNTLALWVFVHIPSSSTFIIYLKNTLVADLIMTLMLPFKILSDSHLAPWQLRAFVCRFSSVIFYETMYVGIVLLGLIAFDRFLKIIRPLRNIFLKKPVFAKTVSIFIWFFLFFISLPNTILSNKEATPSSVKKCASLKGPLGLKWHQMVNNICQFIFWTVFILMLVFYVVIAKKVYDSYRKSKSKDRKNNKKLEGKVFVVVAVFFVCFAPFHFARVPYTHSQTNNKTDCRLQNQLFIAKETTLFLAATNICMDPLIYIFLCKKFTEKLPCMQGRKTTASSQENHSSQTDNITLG
Procedure: Cells were transiently transfected with siRNA designated to human P2Y13 receptor (column c, d, e). 48 hours later, cells were incubated for 10 minutes at 37° C. with 75 μg/ml ^125I-HDL3 without (control) or with ADP 100 nM (a and c), AR-C69931MX 100 nM (b and d), PBS (e) (n>5); (*) p<0.05 (unpaired t-test).
(§1) Internalization assays were performed as described in Guendouzi et al., (Biochemistry, 1998, 37: 14974-80) on HepG2 cells, obtained from the American Type Culture Collection ([…]). Cells were incubated for 10 minutes at 37° C. with 75 μg/ml of either ^125I-TG-HDL2, ^125I-HDL3 or ^125I-LDL. After washing and dissociation at 4° C. in phosphate buffered saline (PBS), cell radioactivity was determined using a Wallac 1261 multigamma apparatus.
The silencing of the different P2Y receptors were carried-out using the siRNA technique. The siRNA sequenced targeting human P2Y13 receptor (Gene Bank GB/EMBL/DDBJ accession number AF295368) was from position 406 or 359 relative to the start codon. […]
(§2) Results are expressed as a percentage of internalization with respect to the control value (set at 0). […]

HepG2 cells = assay: LDL internalization by HepG2 cells, without or with P2Y13 receptor silencing; format: cell-based, human; conditions: HepG2, 75 μg/ml 125I-LDL, 100 nM, both without or with P2Y13 receptors silencing
Procedure: Experiment was performed as in FIG. 2C except that HepG2 cells were incubated for 10 minutes at 37° C. with 75 μg/ml ^125I-LDL (n>6).
as §1
The silencing of the different P2Y receptors were carried-out using the siRNA technique. The siRNA sequenced targeting human P2Y13 receptor (Gene Bank GB/EMBL/DDBJ accession number AF295368) was from position 406 or 359 relative to the start codon. The siRNA duplex (21-nt-RNAs) in deprotected and desalted form, the siRNA targeting human P2Y1 receptor (a mix of 4 siRNAs, M-005689), and the non-specific control siRNA (D-001206-01) were purchased from Dharmacon Inc. Subconfluent HepG2 cells were transiently transfected with siRNAs (final concentration, 100 nM) using Oligofectamine™ according to the manufacturer's protocole (Invitrogen). Cells were usually assayed 48 hours after transfection. […]
as §2

| Structure (SMILES) | behaviour at P2Y13 receptor (modulation of ADP effect on cAMP) (human P2Y13 receptor [1]; AR-C69931MX 100 nM with increasing ADP) | maximal inhibition (decrease) of forskolin-induced cAMP accumulation (human P2Y13 receptor [1]) | IC50 (human P2Y13 receptor [1]) | effect of P2Y13 receptor silencing on HDL3 internalization after stimulation (human P2Y13 receptor [2]) | stimulation of internalization of 125I-labelled LDL (HepG2 cells) |
| --- | --- | --- | --- | --- | --- |
| CSCCNc1nc(SCCC(F)(F)F)nc2c1ncn2[C@@H]1O[C@H](COP(=O)(O)OP(=O)(O)C(Cl)(Cl)P(=O)(O)O)[C@@H](O)[C@H]1O [AR-C69931MX, N-[2-(methylthio)ethyl]-2-[(3,3,3-trifluoropropyl)thio]-5′-adenylic acid, monoanhydride with dichloromethylenebisphosphonic acid] | partial agonist | 25% | 0.5 ± 0.1 nM | strong inhibition | lack of stimulation |
| Nc1ncnc2c1ncn2[C@@H]1O[C@H](COP(=O)(O)OP(=O)(O)O)[C@@H](O)[C@H]1O [ADP, adenosine diphosphate, reference compound] |  | 70% | 0.6 ± 0.2 nM | strong inhibition | lack of stimulation |
